Results published in ChEMBL document CHEMBL1201862, “PubChem BioAssay data set” (2004).
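Exposure lasted 48 hours, with cells grown in 96-well plates and compounds tested at five concentrations. GI50: concentration for 50% inhibition of growth.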 Active and inactive are the calls of the source. No stated cut-off is given here; in the data, active = GI50 up to about 1.1 µM and inactive = higher.

Assays:
Experiment in all cases: NCI-60 cell line screen, 48 h
[1] = system: NCI-H226
[2] = system: HCC 2998
[3] = system: OVCAR-5
[4] = system: HOP-62
[5] = system: KM12
[6] = system: A549
[7] = system: HOP-92
[8] = system: COLO 205
[9] = system: OVCAR-8
[10] = system: CCRF-CEM
[11] = system: RPMI-8226
[12] = system: UO-31
[13] = system: SNB-19
[14] = system: NCI-H23
[15] = system: MCF7
[16] = system: SK-MEL-5
[17] = system: HCT-15
[18] = system: SF-539
[19] = system: NCI-H460
[20] = system: SN12C

Row | Structure (SMILES) | GI50 [1] | GI50 [2] | GI50 [3] | GI50 [4] | GI50 [5] | GI50 [6] | GI50 [7] | GI50 [8] | GI50 [9] | GI50 [10] | GI50 [11] | GI50 [12] | GI50 [13] | GI50 [14] | GI50 [15] | GI50 [16] | GI50 [17] [µM] | GI50 [18] | GI50 [19] | GI50 [20]
1 | FC(F)(F)c1ccc2c(c1)nc(Cc1ccccc1)n2C[C@@H]1CCCN2CCCCC12 (stereo not given in full) | 19.2 µM (inactive) | 4.68 µM (inactive) | 16.1 µM (inactive) | 14.6 µM (inactive) | 15.8 µM (inactive) | 15 µM (inactive) | 8.85 µM (inactive) | 14.1 µM (inactive) | 15.3 µM (inactive) | 17.1 µM (inactive) | 17.1 µM (inactive) | 0.19 µM (active) | 14.8 µM (inactive) | 14.6 µM (inactive) | 14.1 µM (inactive) | 14.4 µM (inactive) | 14.6 | 18.8 µM (inactive) | 15.2 µM (inactive) | 13.1 µM (inactive)
2 | C[C@]12C=CC(=O)C=C1CC[C@@H]1[C@@H]2CC[C@]2(C)OC(=O)CC[C@@H]12 [TESTOLACTONE] | 417 µM (inactive) | 372 µM (inactive) | > 489 µM (inactive) | > 467 µM (inactive) | > 500 µM (inactive) | 447 µM (inactive) | 402 µM (inactive) | 480 µM (inactive) | > 462 µM (inactive) | 431 µM (inactive) | 450 µM (inactive) | 444 µM (inactive) | > 500 µM (inactive) | > 491 µM (inactive) | 457 µM (inactive) | 429 µM (inactive) | > 488 | 454 µM (inactive) | 484 µM (inactive) | 495 µM (inactive)
